Test results published in patent publication US8759343B2 (priority 2007, dated 2014).
Counter-ions that a name gives are not always drawn.

Row | SMILES | melting point [°C]
1 | COc1ccccc1-c1ccc(C23CCCN(CCC2)C3)cn1 (as salt: HBr) | 239 to 241
2 | c1ccc2sc(-c3ccc(C45CCN(CC4)C5)cn3)cc2c1 | 202 to 203
3 | FC(F)(F)Oc1cccc(-c2ccc(C34CCCN(CCC3)C4)cn2)c1 (as salt: HBr) | 267 to 269
4 | FC(F)(F)c1cccc(-c2ccc(C34CCN(CC3)C4)cn2)c1 (as salt: HCl) | 191 to 192
5 | Fc1ccc(-c2ccc(C34CCN(CC3)C4)cn2)cn1 | 108 to 109
6 | Fc1ncccc1-c1ccc(C23CCN(CC2)C3)cn1 | 116 to 117
7 | c1cnc2ccc(-c3ccc(C45CCN(CC4)C5)cn3)cc2c1 (as salt: HCl) [Compound 12, 6-[5-(1-azabicyclo[2.2.1]hept-4-yl)pyridin-2-yl]quinoline] | 327 to 328
8 | c1ccc(-c2ccc(-c3ccc(C45CCCN(CCC4)C5)cn3)cc2)cc1 | 146 to 148
9 | c1ccc(-c2ccc(-c3ccc(C45CCN(CC4)C5)cn3)cc2)cc1 | 191 to 192
10 | Fc1ccccc1-c1ccc(C23CCN(CC2)C3)cn1 | 110 to 112
11 | CC(C)(C)OC(=O)N1CCN(c2ccc(-c3ccc(C45CCN(CC4)C5)cn3)cn2)CC1 | 216 to 218
12 | c1ccc2c(-c3ccc(C45CCN(CC4)C5)cn3)cncc2c1 | 143 to 145
13 | c1cnc2c(-c3ccc(C45CCN(CC4)C5)cn3)cccc2c1 | 176 to 178
14 | Fc1cccc(-c2ccc(C34CCCN(CCC3)C4)cn2)c1 | 102 to 104
15 | c1cc2nonc2cc1-c1ccc(C23CCCN(CCC2)C3)cn1 | 151 to 153
16 | Fc1ccc(-c2ccc(C34CCCN(CCC3)C4)cn2)cc1 | 107 to 109
17 | c1cc(N2CCCC2)ncc1-c1ccc(C23CCCN(CCC2)C3)cn1 | 301 to 303
18 | COc1cccc(-c2ccc(C34CCCN(CCC3)C4)cn2)c1F | 144 to 146
19 | FC(F)(F)c1ccccc1-c1ccc(C23CCN(CC2)C3)cn1 (as salt: HBr) | 310 to 312

Row | SMILES | melting point [°C]
20 | Fc1ccccc1-c1ccc(C23CCCN(CCC2)C3)cn1 | 117 to 119
21 | c1cc(-c2ccc(C34CCCN(CCC3)C4)cn2)co1 | 335 to 337
22 | c1ccc2cc(-c3ccc(C45CCCN(CCC4)C5)cn3)ccc2c1 | 163 to 165
23 | COc1ccc(-c2ccc(C34CCCN(CCC3)C4)cn2)cc1 | 138 to 139
24 | c1ccc2c(-c3ccc(C45CCCN(CCC4)C5)cn3)cncc2c1 (as salt: HBr) | 332 to 334
25 | COc1ncc(-c2ccc(C34CCN(CC3)C4)cn2)c(OC)n1 | 104 to 106
26 | c1cc(-c2ccc(C34CCN(CC3)C4)cn2)ccn1 | 254 to 256
27 | c1cc(-c2ccc(C34CCN(CC3)C4)cn2)c2ccncc2c1 | 176 to 178
28 | c1ccc2c(c1)nnn2-c1ccc(C23CCCN(CCC2)C3)cn1 (as salt: HCl) | 258 to 260
29 | c1ccc2sc(-c3ccc(C45CCCN(CCC4)C5)cn3)cc2c1 | 176 to 178
30 | c1ccc2c(-c3ccc(C45CCCN(CCC4)C5)cn3)cccc2c1 | 167 to 169
31 | COc1ccncc1-c1ccc(C23CCCN(CCC2)C3)cn1 | 134 to 136
32 | c1cc(-c2ccc(C34CCCN(CCC3)C4)cn2)c2ccncc2c1 (as salt: HBr) | 246 to 248
33 | CC(=O)c1cccc(-c2ccc(C34CCCN(CCC3)C4)cn2)c1 (as salt: HBr) | 284 to 285
34 | c1ccc2c(c1)oc1c(-c3ccc(C45CCN(CC4)C5)cn3)cccc12 | 158 to 160
35 | c1ccc2ncc(-c3ccc(C45CCN(CC4)C5)cn3)cc2c1 | 267 to 268
36 | Fc1ncccc1-c1ccc(C23CCCN(CCC2)C3)cn1 | 98 to 99
37 | FC(F)(F)c1ccc(-c2ccc(C34CCCN(CCC3)C4)cn2)cc1 | 135 to 137
38 | c1cnc2ccc(-c3ccc(C45CCCN(CCC4)C5)cn3)cc2c1 | 151 to 153
